Reference: patent publication US12558352B2, “Use of malic enzyme 1 (ME1) in preparation of drug for preventing and treating pulmonary hypertension (PH)” (Institute of Basic Medical Sciences, CAMS, priority 2022, dated 2026)

Columns and labels:
SuHx-induced PH mice = assay: Preventive treatment of SuHx-induced PH mice; type: in vivo, mouse; conditions: compared with vehicle
Procedure: 8 to 10 week-old SPF-grade C57BL/6J male mice weighing 25 g to 30 g were fed in a hypoxia chamber (an oxygen concentration in the chamber was maintained at 10%) while receiving weekly subcutaneous injections of 20 mg/kg of SU5416 for 0 weeks (n=8), 1 week (n=8), 2 weeks (n=8), and 3 weeks (n=8). The mouse lung tissues were collected and assessed for RVSP and RVHI and analyzed for PAMT.
The RVSP can be used to evaluate a pulmonary artery pressure (PAP) of the mouse, and the RVHI can reflect the right ventricular involvement and right ventricular hypertrophy of the mouse due to excessive PVR. The specific operation steps were as follows: (1) After anesthetized with 2% pentobarbital sodium (50 mg/kg by intraperitoneal injection), the mice were fixed on an operating board. (2) Power Lab was started and then connected to a pressure transducer. (3) The skin of the anterior chest wall of the mouse was cut with surgical scissors to clearly expose the position of manubrium sternum. (4) A 22-gauge needle was inserted into the right ventricle (RV) at 45° along an intersection point of the manubrium sternum and the left costal margin through the closed chest, and a position of the needle tip in the heart cavity was determined by the waveform; a stable RVSP waveform was saved and an RVSP measured value were recorded through Chart program. (5) The mice were sacrificed to obtain the heart; excess connective tissue and appendages in the heart were removed, and a free wall of the right ventricle was cut; the right ventricle, left ventricle, and interventricular septum (Left ventricular+septum, LV+S) were weighed to calculate RVHI=RV/LV+S.
PAMT is used to analyze the morphological changes of pulmonary vessels. In the present disclosure, a primary antibody of α-smooth muscle actin (α-SMA), a surface marker of pulmonary vascular smooth muscle cells, was stained by immunohistochemistry, and then a percentage of PAMT was calculated to evaluate the pulmonary vascular remodeling of PH mice. […] After deparaffinized and antigen retrieval (a pH of citric acid buffer was 6.0), the section was incubated with a primary antibody against α-SMA at 4° C. overnight, and then incubated with a horseradish peroxidase-bound secondary antibody. After counterstained with hematoxylin, cell nuclei were rinsed with tap water and differentiated with 0.5% […], soaked in tap water for 15 min, routinely dehydrated, subjected to transparent treatment, sealed with glycerogelatin and photographed. Statistical analysis: pulmonary vessel thickness was measured with a diameter of (0-50) μm and (50-100) μm. At least 20 vessels with a diameter of (0-50) μm and at least 15 vessels with a diameter of (50-100) μm were assessed per mouse, and the PAMT percentage was calculated as: (outer circumference/2π-inner circumference/2π)/(outer circumference/2π)×100.
Echocardiography was conducted using a Vevo 2100 ultrasound imaging platform to evaluate the dynamic changes of blood flow in the right heart of PH mice. (1) The mice were depilated to fully expose the skin on the chest wall. (2) The mice were placed on a constant-temperature heating plate at 37° C., anesthetized with 3.0% isoflurane through the nose and mouth, and the inhalation was continued with 1.5% isoflurane after the mice were anesthetized. (3) The mice were smeared with a small amount of coupling agent on their limbs and the limbs were fixed, and dynamic changes of the body temperature, heart rate, respiration rate, and electrocardiogram for mice were continuously recorded, while ensuring that the mice were in a resting state. (4) The ultrasound probe was placed, an appropriate amount of coupling agent was added, the pulmonary artery acceleration time (PAAT), pulmonary artery ejection time (PAET), and velocity-time integral were determined at a short-axis position, and then obtained frequency spectrum was saved and added with color ultrasound. […]

[1] = Safety evaluation of preventive treatment (body weight, HE staining of organs); type: in vivo, mouse; conditions: 100 mg/kg intraperitoneally once a day
Procedure: Male SPF-grade C57BL/6J mice aged 8 to 10 weeks with a body weight of 25 g to 30 g were randomly divided into the following 4 groups: • (1) Normoxia+vehicle control group: 6 mice were fed in a normoxia environment for 3 weeks; from the second week, the mice were intraperitoneally injected with vehicle (100 mg/kg) once a day, for a total of 14 injections. • (2) Normoxia+ME1* treatment group: 6 mice were fed in a normoxia environment for 3 weeks; from the second week, the mice were intraperitoneally injected with ME1* (100 mg/kg) once a day, for a total of 14 injections. • (3) SuHx modeling+vehicle control group: 10 mice were treated with SuHx for 3 weeks (SuHx modeling method was the same as above); from the second week, the mice were intraperitoneally injected with vehicle (100 mg/kg) once a day, for a total of 14 injections. • (4) SuHx modeling+ME1* treatment group: 10 mice were treated with SuHx for 3 weeks; from the second week, the mice were intraperitoneally injected with ME1* (100 mg/kg) once a day, for a total of 14 injections. […]

ME1 = target: T1, ME1 (Mus musculus, UniProt P06801); assay: Dose-finding: inhibition of ME1 enzymatic activity in lung tissue of normoxia mice after single intraperitoneal injection; type: in vivo; conditions: dose greater than or equal to 100 mg/kg (doses tested 1, 10, 100, 200, 500 mg/kg)
T1 construct: from tissue; host or cells: mouse lung tissue (normoxia mice, lysate after intraperitoneal dosing)
T1 sequence (P06801 1-572): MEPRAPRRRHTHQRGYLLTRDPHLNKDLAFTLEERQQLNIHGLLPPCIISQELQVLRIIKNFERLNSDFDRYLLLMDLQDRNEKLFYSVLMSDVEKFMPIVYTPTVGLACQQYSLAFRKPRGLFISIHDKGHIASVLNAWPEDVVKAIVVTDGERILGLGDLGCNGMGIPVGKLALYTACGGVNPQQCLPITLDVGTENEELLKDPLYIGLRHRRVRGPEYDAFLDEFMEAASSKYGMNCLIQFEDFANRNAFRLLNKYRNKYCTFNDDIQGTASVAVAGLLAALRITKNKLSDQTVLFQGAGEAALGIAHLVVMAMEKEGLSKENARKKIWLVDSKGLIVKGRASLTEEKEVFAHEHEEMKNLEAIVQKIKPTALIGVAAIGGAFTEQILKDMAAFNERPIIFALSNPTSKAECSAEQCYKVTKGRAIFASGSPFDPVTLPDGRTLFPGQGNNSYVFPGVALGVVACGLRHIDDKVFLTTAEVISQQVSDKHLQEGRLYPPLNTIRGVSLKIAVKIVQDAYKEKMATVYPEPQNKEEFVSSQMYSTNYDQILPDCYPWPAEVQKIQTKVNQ
Procedure: Histone supernatants or mitochondrial extracts were used to detect ME1 enzymatic activity. (1) Liquid preparation: an ME1 reaction buffer (pH=7.4) was prepared from 67 mM triethanolamine and 5.0 mM manganese chloride. (2) Sample preparation: a protein lysate was centrifuged at 13,000 rpm for 15 min at 4° C. (3) Adding samples: a reaction system included ME1 reaction buffer+L-malic acid (3.3 mM)+β-NADP^+ (0.3 mM)+protein lysate, with a total volume of 150 μL. (4) Reading was done with a multi-functional microplate reader, at a reading temperature maintained at 37° C., and an absorbance value was monitored at a wavelength of 340 nm every 50 s for a total of 30 min. (5) The protein concentration was determined for standardization. (6) The change of absorbance per mg of protein per unit time was calculated. In the present disclosure, normoxia mice are intraperitoneally injected with ME1*, at single injection doses of 1, 10, 100, 200, and 500 mg/kg, respectively, to explore the inhibitory effect of ME1* on the enzymatic activity of ME1 in mouse lung tissues.

[2] = 100 mg/kg intraperitoneally once a day, 14 injections
[3] = echocardiography, 100 mg/kg intraperitoneally once a day

O=C1CC(N2CCN(c3ccc(O)cc3)CC2)C(=O)N1c1ccccc1 (stereo not drawn) [ME1*]
progression of PH (SuHx-induced PH mice; 100 mg/kg intraperitoneally once a day from second week, 14 injections): significantly slowed | RVHI (%) (SuHx-induced PH mice; [2]): significantly lower | RVSP (SuHx-induced PH mice; [2]): significantly lower | PA AT/ET (SuHx-induced PH mice; [3]): significantly higher | TAPSE (SuHx-induced PH mice; [3]): significantly higher | PAMT percentage (SuHx-induced PH mice; pulmonary artery diameters 0-50 μm and 50-100 μm, 100 mg/kg intraperitoneally once a day): significantly lower | tissue and organ damage (HE staining of lung, heart, liver, spleen, kidney, small intestine) ([1]; after the treatment, 14 injections): no obvious tissue and organ damage | body weight of the mice ([1]; weighed every week, compared with vehicle group): not significantly reduced | enzymatic activity of ME1 in mouse lung tissue (ME1): significantly inhibited
